IC50 data for two molecules are collected here from ChEMBL document CHEMBL4725243, “High-Throughput Screening for the Discovery of Enzyme Inhibitors” (J Med Chem, 2020).

The test has as its target Immunoglobulin A1 protease autotransporter (Haemophilus influenzae (strain ATCC 51907 / DSM 11121 / KW20 / Rd), UniProt P44969). Briefly: Inhibition of Haemophilus influenzae Rd IGA1 protease expressed in Escherichia coli BL21(DE3) preincubated for 1 hr followed by substrate addition and measured after 2 hrs by sandwich ELISA. In general terms: In an ELISA, binding on a coated surface is turned into a signal by an enzyme label.

Immunoglobulin A1 protease autotransporter, sequence (P44969 26-1014 limits assumed): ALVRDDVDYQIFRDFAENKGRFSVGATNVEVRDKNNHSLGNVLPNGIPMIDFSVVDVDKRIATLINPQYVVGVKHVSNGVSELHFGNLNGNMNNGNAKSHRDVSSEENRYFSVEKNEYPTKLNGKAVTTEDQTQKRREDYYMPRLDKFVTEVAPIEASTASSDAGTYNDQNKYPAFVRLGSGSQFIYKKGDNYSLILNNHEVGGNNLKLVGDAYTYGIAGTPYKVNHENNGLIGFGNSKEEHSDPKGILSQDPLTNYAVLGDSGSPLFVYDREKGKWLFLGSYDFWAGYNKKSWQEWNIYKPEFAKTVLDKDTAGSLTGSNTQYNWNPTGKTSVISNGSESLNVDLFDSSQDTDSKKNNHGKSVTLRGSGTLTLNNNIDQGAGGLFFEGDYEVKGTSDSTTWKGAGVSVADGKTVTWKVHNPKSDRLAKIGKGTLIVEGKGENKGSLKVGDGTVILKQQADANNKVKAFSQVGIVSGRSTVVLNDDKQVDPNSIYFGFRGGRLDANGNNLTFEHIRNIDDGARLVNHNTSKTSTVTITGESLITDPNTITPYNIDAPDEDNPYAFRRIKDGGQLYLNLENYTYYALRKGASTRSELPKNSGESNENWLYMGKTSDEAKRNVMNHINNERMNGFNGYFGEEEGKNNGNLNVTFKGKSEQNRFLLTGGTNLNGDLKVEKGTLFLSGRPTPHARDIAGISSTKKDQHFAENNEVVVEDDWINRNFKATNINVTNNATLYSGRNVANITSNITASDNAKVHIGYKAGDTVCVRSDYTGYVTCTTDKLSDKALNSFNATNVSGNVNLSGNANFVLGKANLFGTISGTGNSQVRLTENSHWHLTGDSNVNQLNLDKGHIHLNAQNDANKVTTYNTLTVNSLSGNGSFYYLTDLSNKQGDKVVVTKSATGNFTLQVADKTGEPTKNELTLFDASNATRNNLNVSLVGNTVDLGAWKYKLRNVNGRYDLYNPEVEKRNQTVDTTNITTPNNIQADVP

Usually IC50 stands for the concentration needed to halve the response being measured. Read a high IC50 as a need for much substance. The molecule `O=C(Oc1nsnc1N1CCCCC1)C1CCOCC1` had an IC50 of 3.7 µM.

Take `O=C(Oc1nsnc1N1CCOCC1)c1ccccc1`: the IC50 stood at 5.9 µM.
